Activity calls are given as the source filed them.
Key:
[1] = biological target: Nucleotide-binding oligomerization domain-containing protein 2 (Homo sapiens, UniProt Q9HC29); assay: inhibition of MDP-driven NOD2 NF-kB reporter – cell-based, set 3, SAR follow-up (AID 2799); assay type: functional
[2] = tested on: HEK293; assay: SAR analysis of compounds that are cytotoxic to HEK293 - Set 3. [Related pubchem assays (depositor defined):AID1575, AID1578, AID1848, AID1849, AID2001, AID2333, AID2334, AID2335, AID2337, AID2469]; assay type: functional, cell-based; conditions: Homo sapiens
[3] = biological target: T1, Nucleotide-binding oligomerization domain-containing protein 1 (Homo sapiens, UniProt Q9Y239); assay: SAR analysis of compounds that inhibit NOD1 - Set 3. [Related pubchem assays (depositor defined):AID1566, AID1575, AID1578, AID1849, AID1852, AID2333, AID2335, AID2466]; assay type: functional
T1 sequence (Q9Y239 whole entry): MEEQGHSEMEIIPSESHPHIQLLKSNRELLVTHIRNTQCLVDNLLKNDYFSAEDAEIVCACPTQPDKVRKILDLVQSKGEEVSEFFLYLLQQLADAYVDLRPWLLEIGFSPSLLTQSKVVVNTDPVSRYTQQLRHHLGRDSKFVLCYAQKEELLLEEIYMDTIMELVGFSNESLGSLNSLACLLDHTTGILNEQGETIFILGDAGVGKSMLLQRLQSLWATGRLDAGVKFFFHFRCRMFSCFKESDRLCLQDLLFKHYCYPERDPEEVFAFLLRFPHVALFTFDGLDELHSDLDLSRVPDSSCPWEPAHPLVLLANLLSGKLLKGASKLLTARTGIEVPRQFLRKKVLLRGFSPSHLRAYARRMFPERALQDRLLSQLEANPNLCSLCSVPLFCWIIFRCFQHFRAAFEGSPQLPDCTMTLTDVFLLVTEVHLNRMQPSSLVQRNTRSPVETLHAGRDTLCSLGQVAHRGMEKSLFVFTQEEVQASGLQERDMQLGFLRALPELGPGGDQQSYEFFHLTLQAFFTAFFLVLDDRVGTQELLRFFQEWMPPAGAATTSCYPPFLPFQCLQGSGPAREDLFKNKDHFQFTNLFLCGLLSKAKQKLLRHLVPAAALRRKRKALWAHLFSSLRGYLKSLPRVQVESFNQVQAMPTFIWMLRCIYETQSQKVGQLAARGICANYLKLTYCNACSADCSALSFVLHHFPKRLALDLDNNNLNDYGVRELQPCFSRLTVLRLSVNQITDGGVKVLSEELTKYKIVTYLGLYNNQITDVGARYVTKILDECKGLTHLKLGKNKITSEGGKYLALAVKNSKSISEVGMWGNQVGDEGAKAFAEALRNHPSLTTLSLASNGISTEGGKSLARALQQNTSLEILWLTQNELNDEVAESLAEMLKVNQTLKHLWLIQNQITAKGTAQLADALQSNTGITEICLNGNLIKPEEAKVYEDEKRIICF

[4] = biological target: Tumor necrosis factor (Homo sapiens, UniProt P01375); assay: analog potency on TNFa NF-kB signaling – cell-based, set 3, SAR follow-up (AID 2801); assay type: functional
[5] = biological target: T2, Kappa-type opioid receptor (Homo sapiens, UniProt P41145); assay: SAR analysis of small molecule agonists of the kappa opioid receptor via a luminescent beta-arrestin assay - Set 2. [Related pubchem assays (depositor defined):AID1777, AID1785, AID1786, AID1966, AID2133, AID2136, AID2284, AID449737]; assay type: functional
[6] = biological target: T2, Kappa-type opioid receptor; assay: SAR analysis of Antagonists of the Kappa Opioid Receptor (KOR) using an Image-Based Assay - Set 2. [Related pubchem assays (depositor defined):AID1777, AID1785, AID1786, AID1966, AID2133, AID2136, AID2284, AID2285, AID2348]; assay type: functional
[7] = biological target: Delta-type opioid receptor (Homo sapiens, UniProt P41143); assay: SAR Analysis of Antagonists of the DOR Receptor using an Image-Based Assay - Set 2. [Related pubchem assays (depositor defined):AID1777, AID1785, AID1786, AID1966, AID2133, AID2136, AID2284, AID2285, AID2357]; assay type: functional
[8] = Counterscreen for AddAB inhibitors: absorbance-based bacterial cell-based high throughput dose response assay for inhibitors of bacterial viability. [Related pubchem assays (depositor defined):AID435030, AID449728, AID449731, AID488942, AID488955, AID488956]; assay type: functional
[9] = biological target: Exodeoxyribonuclease V (Escherichia coli (strain K12), UniProt P04993+P07648+P08394); assay: RecBCD inhibition via phage-restricted bacterial growth – absorbance, V66 E. coli, mutant T4 phage, counter-screen for AddAB inhibitor project, dose response (AID 492957); assay type: functional, cell-based, Escherichia coli str. K-12 substr. MG1655
[10] = biological target: T3, Voltage-gated N-type calcium channel alpha-1B subunit/Amyloid beta A4 precursor protein-binding family A member 1 (Homo sapiens, UniProt Q00975+Q02410); assay type: protein assay
[11] = biological target: T4, Mannose-6-phosphate isomerase (Homo sapiens, UniProt P34949); assay: MPI enzyme activity inhibition – biochemical, fluorescence intensity, coupled assay, primary screen (AID 1209)
T4 sequence (P34949 whole entry): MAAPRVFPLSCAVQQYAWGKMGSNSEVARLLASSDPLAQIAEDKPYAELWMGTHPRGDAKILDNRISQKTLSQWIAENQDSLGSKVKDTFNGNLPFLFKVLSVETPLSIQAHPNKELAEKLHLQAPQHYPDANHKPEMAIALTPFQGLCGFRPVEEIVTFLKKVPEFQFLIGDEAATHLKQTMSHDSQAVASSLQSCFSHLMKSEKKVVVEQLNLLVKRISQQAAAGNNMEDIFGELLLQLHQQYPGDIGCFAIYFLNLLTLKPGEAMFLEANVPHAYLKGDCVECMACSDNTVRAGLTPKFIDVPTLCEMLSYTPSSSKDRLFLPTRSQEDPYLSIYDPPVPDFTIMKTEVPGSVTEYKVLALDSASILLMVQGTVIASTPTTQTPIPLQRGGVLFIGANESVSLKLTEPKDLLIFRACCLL

[12] = viability of HCT116 lacking mutant beta-catenin – cell-based, human colon tumor, dose response (AID 1045); assay type: functional;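 note: HCT116 colon tumor cells with beta catenin knocked out; cells exposed to compound for 60 hours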
[13] = viability of PTEN-deleted HCT116 cells – cell-based, HCT116 PTEN knockout, dose response (AID 1047); assay type: functional;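 note: HCT116 colon tumor cells with PTEN knocked out; cells exposed to compound for 60 hours before readout; potency for loss of cell viability measured by luminescence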
[14] = biological target: Glucose-6-phosphate 1-dehydrogenase (Homo sapiens, UniProt P11413); assay: inhibition of Homo sapiens G6PD, dose series – biochemical, fluorescence, selectivity assay for P. falciparum G6PD inhibitor project, dose response (AID 504792); assay type: functional
[15] = biological target: T3, Voltage-gated N-type calcium channel alpha-1B subunit/Amyloid beta A4 precursor protein-binding family A member 1; assay type: protein assay; remark: listed apart in the source
[16] = antiviral efficacy and BSC cell toxicity – BSC cells, SV40 T antigen inhibitor project, confirmation (AID 2615); assay type: functional, cell-based
[17] = biological target: Beta-galactosidase (Escherichia coli, UniProt Q8VNN2); assay: detection-enzyme interference by beta-gal modulators – biochemical, E. coli enzyme, set 3, artefact control for CCR6 antagonist project, dose response (AID 504712); assay type: functional
[18] = biological target: Large T antigen (Simian virus 40, UniProt P03070); assay type: functional, Betapolyomavirus macacae;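 note: Confirmatory-stage PubChem screen for compounds that inhibit SV40 T antigen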
[19] = Fluorescence-based cell-based high throughput dose response assay for inhibitors of the interaction of nucleotide-binding oligomerization domain containing 2 (NOD2) and the receptor-interacting serine-threonine kinase 2 (RIPK2).; assay type: functional; conditions: Homo sapiens

T3 sequence (Q00975 whole entry): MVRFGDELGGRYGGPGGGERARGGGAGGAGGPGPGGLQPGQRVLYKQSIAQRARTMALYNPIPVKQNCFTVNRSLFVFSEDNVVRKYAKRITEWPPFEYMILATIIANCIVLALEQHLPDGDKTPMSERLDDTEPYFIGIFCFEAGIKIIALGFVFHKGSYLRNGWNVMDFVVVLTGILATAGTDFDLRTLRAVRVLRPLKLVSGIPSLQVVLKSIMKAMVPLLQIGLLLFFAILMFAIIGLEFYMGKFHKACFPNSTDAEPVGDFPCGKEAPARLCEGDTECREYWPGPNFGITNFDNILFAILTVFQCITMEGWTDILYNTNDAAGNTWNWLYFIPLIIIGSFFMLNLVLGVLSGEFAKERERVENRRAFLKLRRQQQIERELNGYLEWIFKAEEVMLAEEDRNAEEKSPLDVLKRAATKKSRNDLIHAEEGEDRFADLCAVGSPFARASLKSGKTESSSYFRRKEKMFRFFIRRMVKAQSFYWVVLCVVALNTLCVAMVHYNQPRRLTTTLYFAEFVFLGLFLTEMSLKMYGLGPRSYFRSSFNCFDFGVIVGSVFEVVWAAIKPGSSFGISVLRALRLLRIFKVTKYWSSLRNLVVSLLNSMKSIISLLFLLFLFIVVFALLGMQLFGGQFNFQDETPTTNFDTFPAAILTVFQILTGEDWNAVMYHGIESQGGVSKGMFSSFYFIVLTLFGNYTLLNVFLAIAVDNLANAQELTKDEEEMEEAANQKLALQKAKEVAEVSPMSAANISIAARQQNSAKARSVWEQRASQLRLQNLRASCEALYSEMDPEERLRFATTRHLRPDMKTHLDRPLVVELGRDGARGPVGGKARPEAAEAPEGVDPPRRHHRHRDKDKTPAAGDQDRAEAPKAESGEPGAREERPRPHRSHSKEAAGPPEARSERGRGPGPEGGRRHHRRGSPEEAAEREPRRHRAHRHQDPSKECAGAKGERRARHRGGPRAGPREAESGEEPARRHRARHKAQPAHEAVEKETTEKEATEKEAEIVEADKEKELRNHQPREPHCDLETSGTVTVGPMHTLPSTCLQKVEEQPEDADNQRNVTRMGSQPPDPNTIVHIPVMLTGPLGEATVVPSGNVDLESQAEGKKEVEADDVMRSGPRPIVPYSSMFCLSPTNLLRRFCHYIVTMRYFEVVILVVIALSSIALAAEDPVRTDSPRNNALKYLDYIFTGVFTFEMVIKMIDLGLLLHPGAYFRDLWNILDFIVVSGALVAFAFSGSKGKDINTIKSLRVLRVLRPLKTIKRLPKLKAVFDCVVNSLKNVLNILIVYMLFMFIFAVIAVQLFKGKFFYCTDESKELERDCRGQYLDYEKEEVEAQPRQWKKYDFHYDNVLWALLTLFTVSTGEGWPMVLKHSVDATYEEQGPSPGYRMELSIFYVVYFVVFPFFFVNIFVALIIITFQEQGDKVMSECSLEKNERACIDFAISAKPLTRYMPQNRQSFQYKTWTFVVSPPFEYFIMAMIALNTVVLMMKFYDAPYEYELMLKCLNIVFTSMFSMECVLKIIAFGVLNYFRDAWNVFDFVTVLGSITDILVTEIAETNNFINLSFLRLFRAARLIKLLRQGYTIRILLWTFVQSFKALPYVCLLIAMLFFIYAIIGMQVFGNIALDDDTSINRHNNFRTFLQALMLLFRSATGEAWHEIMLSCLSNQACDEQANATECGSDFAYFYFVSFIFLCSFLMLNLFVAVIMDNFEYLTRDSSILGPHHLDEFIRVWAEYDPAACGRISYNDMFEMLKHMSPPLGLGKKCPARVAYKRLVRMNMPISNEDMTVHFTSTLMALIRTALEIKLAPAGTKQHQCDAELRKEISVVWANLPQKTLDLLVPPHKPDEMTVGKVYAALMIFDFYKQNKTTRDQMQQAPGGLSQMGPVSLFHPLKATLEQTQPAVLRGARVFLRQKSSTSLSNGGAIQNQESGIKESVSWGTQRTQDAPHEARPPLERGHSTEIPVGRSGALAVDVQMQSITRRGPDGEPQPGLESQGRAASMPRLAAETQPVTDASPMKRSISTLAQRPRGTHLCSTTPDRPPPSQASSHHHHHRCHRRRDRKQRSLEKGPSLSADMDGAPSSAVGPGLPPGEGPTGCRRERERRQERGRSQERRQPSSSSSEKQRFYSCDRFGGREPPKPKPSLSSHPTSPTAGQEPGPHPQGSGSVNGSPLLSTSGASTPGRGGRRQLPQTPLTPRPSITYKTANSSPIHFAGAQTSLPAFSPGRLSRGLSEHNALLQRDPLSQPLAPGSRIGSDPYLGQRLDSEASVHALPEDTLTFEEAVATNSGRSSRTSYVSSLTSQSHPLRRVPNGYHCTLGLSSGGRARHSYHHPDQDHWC
T3 sequence (Q02410 whole entry): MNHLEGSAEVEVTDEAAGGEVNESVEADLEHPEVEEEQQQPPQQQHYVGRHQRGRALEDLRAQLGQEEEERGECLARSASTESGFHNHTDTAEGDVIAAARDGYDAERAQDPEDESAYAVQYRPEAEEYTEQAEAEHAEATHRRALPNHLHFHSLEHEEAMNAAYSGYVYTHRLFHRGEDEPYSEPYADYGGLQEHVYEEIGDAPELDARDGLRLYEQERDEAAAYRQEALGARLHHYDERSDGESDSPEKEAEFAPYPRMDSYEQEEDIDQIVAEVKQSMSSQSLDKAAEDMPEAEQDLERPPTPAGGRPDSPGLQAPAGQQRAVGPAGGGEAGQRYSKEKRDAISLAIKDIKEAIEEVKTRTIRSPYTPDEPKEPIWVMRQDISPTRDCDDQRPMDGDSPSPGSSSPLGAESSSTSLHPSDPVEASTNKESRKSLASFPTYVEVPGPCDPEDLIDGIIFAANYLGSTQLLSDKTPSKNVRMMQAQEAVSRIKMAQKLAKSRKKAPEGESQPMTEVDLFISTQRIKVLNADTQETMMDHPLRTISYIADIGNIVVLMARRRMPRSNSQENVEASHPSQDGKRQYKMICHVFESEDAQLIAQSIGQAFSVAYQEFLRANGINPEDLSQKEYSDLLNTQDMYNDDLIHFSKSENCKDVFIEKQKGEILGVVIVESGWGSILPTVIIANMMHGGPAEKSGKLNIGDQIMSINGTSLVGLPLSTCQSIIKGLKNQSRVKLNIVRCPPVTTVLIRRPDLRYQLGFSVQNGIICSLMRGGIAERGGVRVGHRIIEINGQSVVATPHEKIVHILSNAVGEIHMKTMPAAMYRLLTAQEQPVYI
T2 sequence (P41145 whole entry): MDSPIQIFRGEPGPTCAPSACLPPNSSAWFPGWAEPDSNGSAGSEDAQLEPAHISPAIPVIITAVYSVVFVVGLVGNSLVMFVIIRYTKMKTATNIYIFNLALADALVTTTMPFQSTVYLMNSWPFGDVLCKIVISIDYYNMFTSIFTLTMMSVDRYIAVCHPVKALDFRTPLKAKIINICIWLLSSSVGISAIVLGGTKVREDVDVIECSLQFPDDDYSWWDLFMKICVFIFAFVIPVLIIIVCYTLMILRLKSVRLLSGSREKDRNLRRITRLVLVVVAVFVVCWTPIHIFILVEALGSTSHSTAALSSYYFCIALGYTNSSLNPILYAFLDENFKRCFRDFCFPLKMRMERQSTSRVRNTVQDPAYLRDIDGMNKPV
Beta-galactosidase, sequence (Q8VNN2 whole entry): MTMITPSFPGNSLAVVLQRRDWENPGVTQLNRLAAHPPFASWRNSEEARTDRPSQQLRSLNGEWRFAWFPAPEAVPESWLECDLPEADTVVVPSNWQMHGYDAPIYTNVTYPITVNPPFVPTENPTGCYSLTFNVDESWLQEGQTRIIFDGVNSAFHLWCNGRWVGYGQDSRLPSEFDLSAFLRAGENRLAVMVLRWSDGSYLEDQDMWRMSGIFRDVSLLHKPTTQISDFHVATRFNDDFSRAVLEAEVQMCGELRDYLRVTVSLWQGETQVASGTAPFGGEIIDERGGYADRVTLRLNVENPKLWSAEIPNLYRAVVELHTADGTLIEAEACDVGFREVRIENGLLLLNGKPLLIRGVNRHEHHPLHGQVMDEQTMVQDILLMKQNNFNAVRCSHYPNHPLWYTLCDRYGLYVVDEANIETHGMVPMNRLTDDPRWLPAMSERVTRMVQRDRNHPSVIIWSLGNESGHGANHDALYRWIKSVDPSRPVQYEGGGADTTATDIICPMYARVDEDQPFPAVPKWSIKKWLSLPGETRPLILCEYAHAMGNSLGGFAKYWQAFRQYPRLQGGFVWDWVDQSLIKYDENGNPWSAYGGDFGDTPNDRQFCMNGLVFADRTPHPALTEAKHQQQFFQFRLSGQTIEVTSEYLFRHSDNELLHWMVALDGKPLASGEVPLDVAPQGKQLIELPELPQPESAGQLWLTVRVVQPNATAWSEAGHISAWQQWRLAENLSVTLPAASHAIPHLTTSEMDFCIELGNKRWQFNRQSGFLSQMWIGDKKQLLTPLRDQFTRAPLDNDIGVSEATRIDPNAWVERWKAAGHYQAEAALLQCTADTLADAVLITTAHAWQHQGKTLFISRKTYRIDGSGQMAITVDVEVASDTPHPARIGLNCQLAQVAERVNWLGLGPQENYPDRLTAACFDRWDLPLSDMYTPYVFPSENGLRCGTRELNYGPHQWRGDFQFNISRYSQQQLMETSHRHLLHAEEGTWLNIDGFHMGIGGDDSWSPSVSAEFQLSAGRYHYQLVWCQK
Delta-type opioid receptor, sequence (P41143 whole entry): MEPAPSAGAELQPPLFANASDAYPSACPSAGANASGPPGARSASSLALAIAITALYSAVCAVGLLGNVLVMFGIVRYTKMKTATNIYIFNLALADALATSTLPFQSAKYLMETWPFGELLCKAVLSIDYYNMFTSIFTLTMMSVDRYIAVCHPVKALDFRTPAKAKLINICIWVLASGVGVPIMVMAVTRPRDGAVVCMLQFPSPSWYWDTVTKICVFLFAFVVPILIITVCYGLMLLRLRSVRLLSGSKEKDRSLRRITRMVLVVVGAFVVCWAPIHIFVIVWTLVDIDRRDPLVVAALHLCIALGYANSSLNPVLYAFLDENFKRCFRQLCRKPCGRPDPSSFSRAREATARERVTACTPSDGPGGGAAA

In the case of `CCCCn1c(SCCCc2ccccc2)nc2c1c(=O)[nH]c(=O)n2C`, the IC50 [1] is reported as 11.9 µM (active), the IC50 [2] is reported as > 20 µM (inactive) and the IC50 [3] is reported as > 20 µM (inactive). The IC50 [4] was 17.7 µM (active).
With `CC[C@@](C)(C(=O)Nc1ccc(Br)cc1)N(Cc1ccco1)C(=O)c1ccccn1` the EC50 [5] was 52.3 nM (active), the IC50 [6] was > 32 µM (inactive) and the IC50 [7] was > 32 µM (inactive).
In the case of `O=C(NNC(=O)c1cc2ccccc2cc1O)Nc1ccc(Br)cc1`, the IC50 [8] is reported as > 119 µM (inactive) and the IC50 [9] is reported as > 119 µM (inactive).
With `ClC(Cl)(c1nnnn1-c1ccccc1)c1nnnn1-c1ccccc1` the IC50 [10] was 5.93 µM (active), the IC50 [11] was > 50 µM (not active) and the EC50 [12] was 9.79 µM (active). For the same compound, the EC50 [13] was 10.8 µM (active), the IC50 [14] was > 80 µM (inactive) and the IC50 [15] was 4.38 µM (active). For the same compound, the IC50 [16] was 10 µM (active), the IC50 [17] was > 66.6 µM (inactive) and the IC50 [18] was 5.47 µM (active). For the same compound, the IC50 [19] was 5.41 µM (active).

From ChEMBL document CHEMBL1201862, “PubChem BioAssay data set” (2004)
